The subject of assay [1] is rat cardiac muscle. Put plainly: Force and [Ca2+]i measurements in cardiac trabeculae. The format is cell-based. To be noted: control compounds (NCA hydrolysis products, non-HNO-releasing analogue); data not shown. The method, then:
Force and [Ca^2+]i Measurements in Cardiac Trabeculae.
Rat hearts were exposed via midsternotomy after the animals were anesthetized with intraperitoneal injection of pentobarbital (100 mg/kg), and were then rapidly excised and aorta cannulated. The hearts were perfused retrogradely (˜15 ml/min) with high K^+ Krebs-Henseleit (H-K) solution equilibrated with 95% O2 and 5% CO2. Trabeculae were quickly dissected from the right ventricles of the hearts and mounted between a force transducer and a motor arm. The muscles were superfused with K-H solution at a rate of ˜10 ml/min and stimulated at 0.5 Hz. Force was measured using a force transducer system (SI, Germany) and expressed in mN/mm^2. Sarcomere length was measured by laser diffraction. Fura-2 potassium salt was microinjected iontophoretically into one cell and allowed to spread throughout the whole muscle (via gap junctions). The epifluorescence of fura-2 was measured by exciting at 380 and 340 nm. The fluorescent light was collected at 510 nm by a photomultiplier tube (R1527, Hamamatsu). [Ca^2+]i was given by (after subtraction of the autofluorescence): [Ca^2+]i=K′d(R-Rmin)/(Rmax-R), where R is the observed ratio of fluorescence (340/380), K′d is the apparent dissociation constant, Rmax is the ratio of 340 nm/380 nm at saturating [Ca^2+], and Rmin is the ratio of 340 nm/380 nm at zero [Ca^2+]. The values of K′d, Rmax, and Rmin were determined by in vivo calibrations. Tetanization of the trabecula was achieved by addition of ryanodine (1.0 μmol/L) and by increasing the stimulus rate to 10 Hz briefly (˜3 sec) to obtain steady-state force-[Ca^2+] relations. Different levels of tetanized force will be obtained by increasing [Ca^2+] in the perfusate (up to 20-25 mmol/L). The data will be fitted with the Hill equation: F=Fmax[Ca^2+]in/(K1/2n+[Ca^2+]in), where Fmax is the maximal force. K1/2 is [Ca^2+]i at half Fmax, and n is the Hill coefficient.
1-nitrosocyclohexylacetate (NCA) is a new and mechanistically unique HNO donor that has been recently synthesized.

For assay [2], the system named is skinned trabeculae. Put plainly: Force-[Ca2+] relation in skinned trabeculae. The format is cell-based, rat. To be noted: skinned muscles; DTT (5 mM) for 10 min after NCA. The method, then: FIG. 2. […] (A) Steady-state force-[Ca^2+]i relationship in intact trabeculae before and after NCA (20 μmol/L). n=5. See text for details. (B) Force-[Ca^2+] relation in skinned trabeculae before and after NCA (n=6). […] The muscles were treated with DTT (5 mM) for 10 min after 1st force-[Ca^2+] was obtained in the presence of NCA alone, and a second force-[Ca^2+] relation was obtained in the presence of NCA+DTT. n=3. (D) For comparison, steady-state force-[Ca^2+]i relationship in intact trabeculae before and after AS (500 μmol/L). n=5.
To further test this hypothesis, steady-state force-[Ca^2+]i relations were obtained by tetanizing the muscles in the presence of ryanodine.

Consider 3 compounds from patent US20120231482A1, “METHOD, KIT OR DIAGNOSTIC FOR THE DETECTION OF REAGENTS WHICH INDUCE ALTERED CONTRACTILITY” (THE JOHNS HOPKINS UNIVERSITY, priority 2009, published 2012).

Take `CC(C)(C)C(=O)OC1(N=O)CCCCC1` [1-nitrosocyclohexyl pivalate]: in assay [1], the “effects in cardiac muscles” value is recorded as “had no effects”.

Consider `O[C@@H](CS)[C@@H](O)CS` [DTT], for which the “increases in myofilament Ca2+ sensitivity caused by HNO” value in assay [2] is listed as “completely abolished”.

On to `O=C1CCCCC1` [cyclohexanone], for which the “effects in cardiac muscles” value in assay [1] is recorded as “did not produce any appreciable effects”.
